Assay [1] concerns mienteric plexus of guinea-pig isolated ileum. The assay can be described thus: Inhibition of LTD4-induced contractions in the mienteric plexus of guinea-pig isolated ileum. As to conditions: LTD4 3 nM, compound incubated 2.5 minutes. As for the experimental part: Inhibition test of the contractions induced by LTD4 in the mienteric plexus of quinea-pig isolated ileum.
The antagonistic activity of the compounds of the present invention in the isolated organ was evaluated as its ability to inhibit the contraction caused by LTD4 in the mienteric plexus of the ileum of Dunkin Hartley male albino guinea-pig, weighing 300-350 g (Cristol J.P. and Sirois P. Res. Commun. Chem. Pathol., 59, 423 (1988)).
The mienteric plexus is extracted from a 2-3 cm segment of the terminal portion of the guinea-pig ileum, previously sacrificed by cervical dislocation. The plexus is put, at a tension of 0.5 g, in a 5 ml organ bath, containing a solution of Tyrode (137 mM NaCl, 2.7 mM KCl, 1.4 mM CaCl2, 0.4 mM NaH2PO4, 11.9 mM NaHCO3, 0.8 mM MgSO4, 5.5 mM glucose), saturated with carbogen gas (95% 02-5% CO2) at 37°C. The solution also contains indomethacin (3.3 µM) and atropine (0.4 µM) to remove the action of the intrinsic prostaglandins and the cholinergic responses.
After a 45 minute stabilization period a maximum isotonic response is obtained (100% contractile response) adding to the bath chamber the LTD4 agonist (3 nM). This process is repeated until the same contraction response is obtained twice. The […] measures are made in an isotonic transducer.
After stabilization is restored, the product under test is incubated at different concentrations (dissolved in 0.1% final concentration DMSO) for 2.5 minutes, and after that the contraction with LTD4 is induced again.
The antagonistic activity is expressed as IC50, the concentration of compound which reduces by 50% the maximum contraction.

The target in assay [2] is T1, LTD4 receptors (Cavia porcellus, UniProt Q2NNR5).
T1 construct: Guinea pig lung membranes, containing the LTD4 receptors; from tissue; host or cells: guinea-pig lung membranes
T1 sequence (Q2NNR5 1-340): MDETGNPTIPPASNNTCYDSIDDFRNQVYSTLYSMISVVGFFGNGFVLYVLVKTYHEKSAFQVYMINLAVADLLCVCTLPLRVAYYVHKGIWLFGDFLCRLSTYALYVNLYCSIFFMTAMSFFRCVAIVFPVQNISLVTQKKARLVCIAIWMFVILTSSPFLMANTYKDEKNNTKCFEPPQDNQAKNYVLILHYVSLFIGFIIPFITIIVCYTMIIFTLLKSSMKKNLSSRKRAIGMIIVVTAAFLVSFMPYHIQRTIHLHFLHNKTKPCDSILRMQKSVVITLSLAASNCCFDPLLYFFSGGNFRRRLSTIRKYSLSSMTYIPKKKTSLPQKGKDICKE
Nature of the assay: [3H]-LTD4 receptor binding inhibition test in guinea-pig lung membranes. As to conditions: 0.5 nM [3H]-LTD4, 30 minutes at 25°C, Cheng-Prusoff. As for the experimental part:
[^3H]-LTD4 receptor binding inhibition test in quinea-pig lung membranes
These purified membranes (150 µg/ml) are added to an incubation mixture containing 10 mM of PIPES buffer (piperazin-N,N'-bis(2-ethanesulfonic acid) (pH 7.4), 10 mM of CaCl2, 10 mM of 5 MgCl2, 2 mM of cysteine, 2 mM of glycine, 0.5 nM of [^3H]-LTD4 (4700-6400 GBq/mmol) and different concentrations of the product under test in a final volume of 310 µl. The reaction mixture is incubated for 30 minutes at 25°C.
The radioligand bound to the membranes is separated from the free one by dilution with 4 ml washing buffer (10 mM Tris-HCl (pH 7.4) and 100 mM NaCl) at 0°C and filtration with Whatman GF/B filters, by means of a Brandel Cell Harvester. The filters are washed 4 times with a total volume of 16 ml of washing buffer at 0°C. The radioactivity present in the filters is determined by liquid scintillation.
The specific binding is defined as the difference between the total binding of [^3H]-LTD4 and the nonspecific binding determined in the presence of 1 µM LTD4.

Molecules are shown by their SMILES. Where a name gives a salt, the structure may show the parent alone.

In general, IC50 refers to the concentration that gives 50% inhibition. A low value points to inhibition by little substance. In turn, `CC(C(=O)NCc1ccc(-c2nnn[nH]2)cc1)c1ccc2cc(OCc3ccc4ccccc4n3)ccc2c1` (centres unmarked) [Example 1, N-[4-(1H-5-tetrazolyl)phenylmethyl]-2-[6-(2-quinolinylmethoxy)-2-naphthyl]propanamide] had an IC50 in assay [1] of 0.013 µM.
In general, Ki refers to a measure of affinity in units of concentration, obtained from inhibition or displacement. A lower Ki goes with tighter binding. For `CC(C(=O)NCc1cccc(-c2nnn[nH]2)c1)c1ccc2cc(OCc3ccc4ccccc4n3)ccc2c1` (centres unmarked) [Example 2, N-[3-(1H-5-tetrazolyl)phenylmethyl]-2[6-(2-quinolinylmethoxy)-2-naphthyl]propanamide], the inhibitory constant (Ki) in assay [2] stood at 0.0295 ± 0.003 µM. In addition, it took 0.066 µM to reach half-maximal inhibition in assay [1] (IC50).
In turn, `CC(C(=O)NCc1ccccc1-c1nnn[nH]1)c1ccc2cc(OCc3ccc4ccccc4n3)ccc2c1` (centres unmarked) [Example 3, N-[2-(1H-5-tetrazolyl)phenylmethyl]-2-[6-(2-quinolinylmethoxy)-2-naphthyl]propanamide] displayed an inhibition constant Ki in assay [2] of 0.012 ± 0.003 µM. For the same compound, inhibition in assay [1] was half-maximal at 0.018 µM (IC50).
On the same counts, the results for `CC(C(=O)Nc1ccc(Cc2nnn[nH]2)cc1)c1ccc2cc(OCc3ccc4ccccc4n3)ccc2c1` (centres unmarked) [Example 5, N-[4-(1H-5-tetrazolyl)methylphenyl]-2-[6-(2-quinolinylmethoxy)-2-naphthyl]propanamide] are 0.034 ± 0.005 µM and over 0.1 µM.
On the same counts, the results for `CC(C(=O)Nc1ccc(Cc2nn[nH]n2)cc1)c1ccc2cc(OCc3ccc4ccccc4n3)ccc2c1` (centres unmarked) [Example 6, N-[4-(1H-5-tetrazolyl)methylphenyl]-2-[6-(2-quinolinylmethoxy)-2-naphthyl]propanamide (sodium salt)] are 0.0327 ± 0.003 µM and over 0.1 µM.
Taken in the same sequence, the figures for `CC(C(=O)Nc1ccc(CCCC(=O)O)cc1)c1ccc2cc(OCc3ccc4ccccc4n3)ccc2c1` (centres unmarked) [Example 10, 4-[4-[2-[6-(2-quinolinylmethoxy)-2-naphthyl]propanamido]phenyl]butanoic acid] were 0.0385 ± 0.0063 µM and over 0.1 µM.
Regarding `CC(C(=O)NCc1cccc(C(=O)O)c1)c1ccc2cc(OCc3ccc4ccccc4n3)ccc2c1` (centres unmarked) [Example 14, 3-[2-[6-(2-quinolinylmethoxy)-2-naphthyl]propanamidomethyl]benzoic acid], the Ki in assay [2] amounted to 0.068 ± 0.005 µM. In addition, the half-maximal inhibitory concentration (IC50) in assay [1] was 0.075 µM.
`CC(C(=O)Nc1cccc(CC(=O)O)c1)c1ccc2cc(OCc3ccc4ccccc4n3)ccc2c1` (centres unmarked) [Example 18, 3-[2-[6-(2-Quinolinylmethoxy)-2-naphthyl]propanamido]phenylacetic acid] returned an inhibition constant Ki in assay [2] of 0.134 ± 0.018 µM.
On the same count and under the same terms, next, `CC(C(=O)Nc1ccc(CCCC(=O)O)cc1)c1ccc2cc(OCc3ccc4ccc(Cl)cc4n3)ccc2c1` (centres unmarked) [Example 20, 4-[4-[2-[6-[(7-chloro-2-quinolinyl)-methoxy]-2-naphthyl]propanamido]phenyl]butanoic acid]: 0.19 ± 0.021 µM.
For the compound `O=C(Cc1ccc2cc(OCc3ccc4ccccc4n3)ccc2c1)NCc1ccc(-c2nnn[nH]2)cc1` [Example 21, N-[4-(1H-5-tetrazolyl)phenylmethyl]-6-(2-quinolinylmethoxy)-2-naphthaleneacetamide], the Ki in assay [2] stood at 0.0055 ± 0.0005 µM. In addition, the midpoint of inhibition in assay [1], the IC50, lay at 0.006 µM.
On the same counts, the results for `O=C(O)CCCc1ccc(NC(=O)c2ccc3cc(OCc4ccc5ccccc5n4)ccc3c2)cc1` [Example 23, 4-[4-[[6-(2-quinolinylmethoxy)-2-naphthyl]carboxamido]phenyl]butanoic acid] are 0.03 ± 0.0012 µM and over 0.1 µM.
In the case of `O=C(NCc1cccc(-c2nnn[nH]2)c1)c1ccc2cc(OCc3ccc4ccccc4n3)ccc2c1` [Example 24, N-[3-(1H-5-tetrazolyl)phenylmethyl]-6-(2-quinolinylmethoxy)-2-naphthalenecarboxamide], the inhibition constant (Ki) in assay [2] was determined as 0.028 ± 0.003 µM.
In assay [1], `O=C(O)CCCc1ccc(NC(=O)c2ccc3ccc(OCc4ccc5ccccc5n4)cc3c2)cc1` [Example 26, 4-[4-[[7-(2-quinolinylmethoxy)-2-naphthyl]carboxamido]phenyl]butanoic acid] returned an IC50 of 0.038 µM.
As to `O=C(NCc1ccc(-c2nnn[nH]2)cc1)c1ccc2ccc(OCc3ccc4ccccc4n3)cc2c1` [Example 27, N-[4-(1H-5-tetrazolyl)phenylmethyl]-7-(2-quinolinylmethoxy)-2-naphthalenecarboxamide], affinity in assay [2] was put at a Ki of 0.0078 ± 0.002 µM. The compound also returned an IC50 in assay [1] of 0.028 µM.
For the compound `O=C(O)c1ccc(CCNC(=O)c2ccc3ccc(OCc4ccc5ccccc5n4)cc3c2)cc1` [Example 29, 4-[2-[[7-(2-quinolinylmethoxy)-2-naphthyl]carboxamido]ethyl]benzoic acid], affinity in assay [2] was put at a Ki of 0.001 ± 0.0001 µM. The same compound returned a half-inhibitory concentration (IC50) in assay [1] of 0.008 µM.
`O=C(NCCc1ccc(-c2nnn[nH]2)cc1)c1ccc2ccc(OCc3ccc4ccccc4n3)cc2c1` [Example 30, N-[4-(1H-5-tetrazolyl)phenylethyl]-7-(2-quinolinylmethoxy)-2-naphthalenecarboxamide]: half-maximal inhibition in assay [1] (IC50) was put at 0.024 µM.
The compound `O=C(O)CCCc1ccc(C(=O)NCc2ccc3cc(OCc4ccc5ccccc5n4)ccc3c2)cc1` [Example 32, 4-[4-[[6-(2-quinolinylmethoxy)-2-naphthyl]methylaminocarbonyl]phenyl]butanoic acid] returned an inhibition constant (Ki) in assay [2] of 0.044 ± 0.015 µM.
For the compound `O=C(NCCCc1ccc(-c2nnn[nH]2)cc1)c1ccc2ccc(OCc3ccc4ccccc4n3)cc2c1` [Example 33, N-[4-(1H-5-tetrazolyl)phenylpropyl]-7-(2-quinolinylmethoxy)-2-naphthalenecarboxamide], the inhibition constant Ki in assay [2] is 0.0131 ± 0.002 µM. Further, in assay [1], the IC50 stood at 0.087 µM.

The values are drawn from patent EP0775133B1, “NAPHTHALENE AMIDES HAVING LEUKOTRIENE-ANTAGONISTIC ACTION” (LABORATORIOS MENARINI S.A., priority 1994, dated 1996).
